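Interpolation was linear, between the two tested concentrations surrounding the appropriate level; five concentrations were tested over 48 hours in 96-well plates. At the GI50, growth is halved.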 The source made the active and inactive calls. No stated cut-off is given here; in the data, active = GI50 up to about 1.1 µM and inactive = higher.
How the values were obtained:
Test in all cases: growth of human tumour cells (NCI), 48 h
[1] = test system: SF-268
[2] = test system: A549
[3] = test system: OVCAR-5
[4] = test system: SK-MEL-28
[5] = test system: SK-OV-3
[6] = test system: M14
[7] = test system: SNB-75
[8] = test system: IGROV-1
[9] = test system: DMS-273
[10] = test system: M19-MEL
[11] = test system: UACC-62
[12] = test system: CCRF-CEM
[13] = test system: NCI-H226
[14] = test system: OVCAR-8
[15] = test system: CAKI-1
[16] = test system: KM-20L2
[17] = test system: XF498
[18] = test system: MOLT-4
[19] = test system: ACHN
[20] = test system: NCI-H460
[21] = test system: NCI-H23
[22] = test system: OVCAR-4
[23] = test system: UO-31
[24] = test system: LOX IMVI
[25] = test system: SNB-19
[26] = test system: DLD-1
[27] = test system: SF-539
[28] = test system: RXF 631
[29] = test system: HCC 2998
[30] = test system: COLO 205
[31] = test system: NCI-H522
[32] = test system: SK-MEL-2
[33] = test system: SR
[34] = test system: HT-29
[35] = test system: SW-620
[36] = test system: TK-10
[37] = test system: KM12
[38] = test system: RPMI-8226
[39] = test system: HOP-92
[40] = test system: 786-0
[41] = test system: RXF 393
[42] = test system: HCT-15
[43] = test system: SK-MEL-5
[44] = test system: EKVX
[45] = test system: Malme-3M
[46] = test system: HL-60
[47] = test system: U-251
[48] = test system: OVCAR-3
[49] = test system: SF-295
[50] = test system: A498
[51] = test system: HOP-62
[52] = test system: SNB-78
[53] = test system: LXFL 529
[54] = test system: K562
[55] = test system: HOP-18
[56] = test system: UACC-257
[57] = test system: SN12C

For CNC(=O)CN(CC(N)=O)C(N)=O, the GI50 [1] was > 100 µM (inactive), the GI50 [2] was > 100 µM (inactive) and the GI50 [3] was > 100 µM (inactive). For the same compound, the GI50 [4] was > 100 µM (inactive), the GI50 [5] was > 100 µM (inactive) and the GI50 [6] was > 100 µM (inactive). The GI50 [7] was 77.3 µM (inactive), the GI50 [8] was > 100 µM (inactive) and the GI50 [9] was > 100 µM (inactive). For the same compound, the GI50 [10] was > 100 µM (inactive), the GI50 [11] was > 100 µM (inactive) and the GI50 [12] was > 100 µM (inactive). For the same compound, the GI50 [13] was > 100 µM (inactive), the GI50 [14] was > 100 µM (inactive) and the GI50 [15] was > 100 µM (inactive). The GI50 [16] was > 100 µM (inactive), the GI50 [17] was > 100 µM (inactive) and the GI50 [18] was > 100 µM (inactive). The GI50 [19] was > 100 µM (inactive), the GI50 [20] was > 100 µM (inactive) and the GI50 [21] was > 100 µM (inactive). The GI50 [22] was > 100 µM (inactive), the GI50 [23] was > 100 µM (inactive) and the GI50 [24] was > 100 µM (inactive). The GI50 [25] was > 100 µM (inactive), the GI50 [26] was > 100 µM (inactive) and the GI50 [27] was > 100 µM (inactive). The GI50 [28] was > 100 µM (inactive), the GI50 [29] was > 100 µM (inactive) and the GI50 [30] was > 100 µM (inactive). For the same compound, the GI50 [31] was > 100 µM (inactive), the GI50 [32] was > 100 µM (inactive) and the GI50 [33] was > 100 µM (inactive). The GI50 [34] was > 100 µM (inactive), the GI50 [35] was > 100 µM (inactive) and the GI50 [36] was > 100 µM (inactive). The GI50 [37] was > 100 µM (inactive), the GI50 [38] was > 100 µM (inactive) and the GI50 [39] was > 100 µM (inactive). For the same compound, the GI50 [40] was > 100 µM (inactive), the GI50 [41] was > 100 µM (inactive) and the GI50 [42] was > 100 µM. For the same compound, the GI50 [43] was > 100 µM (inactive), the GI50 [44] was > 100 µM (inactive) and the GI50 [45] was > 100 µM (inactive). For the same compound, the GI50 [46] was > 100 µM (inactive), the GI50 [47] was > 100 µM (inactive) and the GI50 [48] was > 100 µM (inactive). The GI50 [49] was > 100 µM (inactive), the GI50 [50] was > 100 µM (inactive) and the GI50 [51] was > 100 µM (inactive). The GI50 [52] was > 100 µM (inactive), the GI50 [53] was > 100 µM (inactive) and the GI50 [54] was > 100 µM (inactive).
O=C(O)CNS(=O)(=O)c1ccc(NC(=O)CI)cc1 was tested, and the GI50 [1] was 18.8 µM (inactive), the GI50 [2] was 91.2 µM (inactive) and the GI50 [3] was 27.6 µM (inactive). For the same compound, the GI50 [4] was 24.4 µM (inactive), the GI50 [5] was 33.8 µM (inactive) and the GI50 [6] was 18.6 µM (inactive). The GI50 [7] was 17.1 µM (inactive), the GI50 [8] was 26.5 µM (inactive) and the GI50 [9] was 17.7 µM (inactive). For the same compound, the GI50 [10] was 32.4 µM (inactive), the GI50 [11] was 25.1 µM (inactive) and the GI50 [55] was 34.3 µM (inactive). The GI50 [12] was 2.33 µM (inactive), the GI50 [13] was > 100 µM (inactive) and the GI50 [14] was 21.1 µM (inactive). The GI50 [15] was 40.7 µM (inactive), the GI50 [16] was 23.1 µM (inactive) and the GI50 [17] was 14.6 µM (inactive). For the same compound, the GI50 [56] was 42.5 µM (inactive), the GI50 [18] was 12.1 µM (inactive) and the GI50 [19] was 52 µM (inactive). For the same compound, the GI50 [20] was 25.7 µM (inactive), the GI50 [21] was 18.3 µM (inactive) and the GI50 [22] was 18 µM (inactive). The GI50 [23] was 20 µM (inactive), the GI50 [24] was 19 µM (inactive) and the GI50 [25] was 58.2 µM (inactive). The GI50 [26] was 26.9 µM (inactive), the GI50 [27] was 16.1 µM (inactive) and the GI50 [28] was 16.4 µM (inactive). For the same compound, the GI50 [29] was > 100 µM (inactive), the GI50 [30] was 26.2 µM (inactive) and the GI50 [31] was 2.16 µM (inactive). For the same compound, the GI50 [32] was 23.3 µM (inactive), the GI50 [34] was 21.2 µM (inactive) and the GI50 [35] was 13.2 µM (inactive). For the same compound, the GI50 [36] was 63 µM (inactive), the GI50 [37] was 24.8 µM (inactive) and the GI50 [38] was 15.7 µM (inactive). The GI50 [39] was 19.4 µM (inactive), the GI50 [40] was 14.9 µM (inactive) and the GI50 [41] was 15.5 µM (inactive). The GI50 [42] was 17.6 µM, the GI50 [43] was 22.2 µM (inactive) and the GI50 [44] was 32.7 µM (inactive). For the same compound, the GI50 [45] was 18.8 µM (inactive), the GI50 [46] was 18.2 µM (inactive) and the GI50 [57] was 32.5 µM (inactive). For the same compound, the GI50 [47] was 19.1 µM (inactive), the GI50 [48] was 24 µM (inactive) and the GI50 [49] was 26.3 µM (inactive). The GI50 [50] was > 100 µM (inactive), the GI50 [53] was 6.97 µM (inactive) and the GI50 [54] was 10.2 µM (inactive).
